Data on three compounds can be found in paper PMC7829762, “Characterization of a Novel Laccase LAC-Yang1 from White-Rot Fungus Pleurotus ostreatus Strain Yang1 with a Strong Ability to Degrade and Detoxify Chlorophenols” (Molecules, 2021).

By Km is commonly meant the concentration of substrate that gives half-maximal velocity.

In this assay the test system is T1, LAC-Yang1.
T1 construct: native enzyme purified from culture supernatant (Cu2+ and syringic acid induced; ammonium sulfate, DEAE, Phenyl-6FF); only laccase band secreted by this strain
Put plainly: absorbance assay, Michaelis-Menten non-linear regression. It counts as biochemical, Pleurotus ostreatus. Conditions: 50 mM acetate buffer pH 5.0, 30 °C, free enzyme. An excerpt:
absorbance assay, Michaelis-Menten non-linear regression on LAC-Yang1

As for 2,6-Dimethylphenol [2,6-DMP], for the setting “470 nm, compound identity doubtful: paper spells 2,6-DMP as 2,6-Dimethylphenol, but 470 nm read-out is usual for 2,6-dimethoxyphenol”, the Km was found to be 120 ± 30 µM.
Regarding `COc1ccccc1O` [guaiacol], the Km (465 nm) was 810 ± 150 µM.
Consider `CCn1c(=NN=c2sc3cc(S(=O)(=O)O)ccc3n2CC)sc2cc(S(=O)(=O)O)ccc21` [ABTS, 2,2′-azino-bis-(3-ethylbenzothiazoline-6-sulfonic acid)], for which the Km (420 nm) came out at 150 ± 50 µM.
